Measurements reported in patent publication US20230225972A1 (priority 2020, published 2023).

System: influenza
Parameters: species or system Mice
Settings: mouse, in vivo

Nc1nc2c(ncn2[C@@H]2O[C@@H]3COP(=O)(O)O[C@H]4[C@@H](O)[C@H](n5cnc6c(=O)[nH]c(N)nc65)O[C@@H]4COP(=O)(O)O[C@H]3[C@H]2O)c(=O)[nH]1 [c-di-GMP]
viral replication in the nose: facilitate reduction of viral replication in the nose
